Reference: patent US5064946A, “Therapeutic nucleosides” (priority 1987, dated 1991)

How the values were obtained:
HIV [1] = test: AZT/Acyclovir combinations vs. HIV in vitro (protection); format: cell-based
[2] = test system: vaccinia, HSVI and varicella zoster virus (VZV); conditions: De Clerq et al. 1980, incl. vaccinia; cited from earlier work
Kaposi's sarcoma (KS) = test: Treatment of Kaposi's sarcoma in 9 patients; format: in vivo, human (patients)
Procedure: In this study, 9 patients diagnosed as having Kaposi's sarcoma (KS) were treated with AZT and the following effects observed.

HIV p24 = test: AZT/Interferon combinations vs. HIV in vitro in PBMC: HIV p24 antigen by radioimmunoassay; format: cell-based; conditions: Experiment 4-Day 14, IFNαA 0
[3] = test system: Friend Leukemia Virus (FLV); test: Anti-Friend Leukemia Virus plaque inhibition in FG-10 cells; format: cell-based; conditions: 144 h, read-out: Azidothymidine ED50
HIV [4] = test: AZT/Interferon combinations vs. HIV in vitro in PBMC: overall inhibition / synergy (all measures of viral replication, isobologram); format: cell-based; conditions: experiment 1, all concentrations of AZT
[5] = test system: thrombocytopaenia purpura; test: Anti-ITP activity: platelet count in a patient with thrombocytopaenia purpura; format: in vivo, human (patient)
Procedure: A patient having a platelet count of 38,000 mm^-3 was diagnosed as having thrombocytopaenia purpura (platelet count <100,000 mm^-3) and was treated for 6 weeks with 5 mg/kg of AZT intravenously every 6 hours during which time, their platelet count rose to 140,000 mm^-3. Treatment was then changed to 5 mg/kg/4 hours orally for 4 weeks, discontinued for 4 weeks, when a drop in platelet numbers, to 93,000 mm^-3 after 2 weeks, and to 70,000 mm^-3 after 4 weeks, was seen. Treatment was recommenced at 5 mg/kg/4 hours orally for 5 weeks and the platelet count rose to 194,000 mm^-3.

[6] = test system: Friend Leukaemia Virus (FLV); conditions: Krieg et al. 1978; cited from earlier work
HIV [7] = test: AZT/Interferon combinations vs. HIV in vitro in PBMC: reverse transcriptase (RT) activity of supernatants; format: cell-based; conditions: rIFNαA 0; for mean reverse transcriptase value: Experiment 2-Day 10
[8] = Ostertag et al. 1974; cited from earlier work
E. coli CN314 = test: In vitro antibacterial MIC and synergy studies against E. coli CN314; conditions: Escherichia coli
clinical = conditions: human, in vivo
Procedure: On days 2 and 3 the patients were also given 500 mg probenecid (PB) every 6 hours and a single dose of AZT was given on day 3.

## Cc1cn([C@H]2C[C@H](N=[N+]=[N-])[C@@H](CO)O2)c(=O)[nH]c1=O [AZT]
HIV [1]; Human immunodeficiency virus 1, T-cell, AZT alone, 8 μM
  inhibition at 8 µM: 100%
HIV [1]; with ACV 0 μg/ml
  AZT concentration required to achieve 100% protection: 8 µM
[2]
  activity against any viruses used in their tests: no appreciable activity
Kaposi's sarcoma (KS); 9 patients
  response: 50%
Kaposi's sarcoma (KS); of 9 patients
  patients exhibiting regression of lesions: Three
  patients in which lesions progressed: 3 patients
  patients in which the KS remained stable: 2 patients
  patients with complete cure: one
Kaposi's sarcoma (KS); vs recombinant a-interferon
  response relative to preferred current therapy: comparable to that obtained with treatment with the preferred current therapy for KS, recombinant a-interferon
HIV p24; AZT 0.02 μM
  HIV p24: 100-200 ng protein/ml
HIV p24; AZT 0.04 μM
  HIV p24: 25-30 ng protein/ml
HIV p24; AZT 0.08 μM
  HIV p24: 11.2 ng protein/ml
[3]
  EC50: 5 nM
HIV [4]
  inhibition of HIV: fully inhibitory
[5]; 2 weeks after discontinuation
  platelet count: 93,000 mm^-3
[5]; 4 weeks after discontinuation
  platelet count: 70,000 mm^-3
[5]; after 6 weeks 5 mg/kg i.v. every 6 hours (start 38,000)
  platelet count: 140,000 mm^-3
[5]; treatment recommenced, 5 mg/kg/4 hours orally for 5 weeks
  platelet count: 194,000 mm^-3
[6]
  activity against FLV in in vitro experiments: active against FLV
HIV [7]; AZT 0.01 μM
  mean reverse transcriptase value: 159 cpm/10^6 cells × 10^3
HIV [7]; AZT 0.02 μM
  mean reverse transcriptase value: 110 cpm/10^6 cells × 10^3
HIV [7]; AZT 0.04 μM
  mean reverse transcriptase value: 71 cpm/10^6 cells × 10^3
HIV [7]; AZT 0.08 μM
  mean reverse transcriptase value: 31 cpm/10^6 cells × 10^3
HIV [7]; AZT 0.16 μM
  mean reverse transcriptase value: 7 cpm/10^6 cells × 10^3
HIV [7]; Experiment 3-Day 13, AZT 0.02 μM
  mean RT value: 51 cpm/10^6 cells × 10^3
HIV [7]; Experiment 3-Day 13, AZT 0.04 μM
  mean RT value: 10 cpm/10^6 cells × 10^3
HIV [7]; Experiment 3-Day 13, AZT 0.08 μM
  mean RT value: 2 cpm/10^6 cells × 10^3
HIV [7]; Experiment 3-Day 13, AZT 0.16 μM
  mean RT value: 5 cpm/10^6 cells × 10^3
HIV [7]; Experiment 4-Day 11, AZT 0.02 μM
  mean RT value: 8 cpm/10^6 cells × 10^3
HIV [7]; Experiment 4-Day 11, AZT 0.04 μM
  mean RT value: 4 cpm/10^6 cells × 10^3
HIV [7]; Experiment 4-Day 11, AZT 0.08 μM
  mean RT value: 1 cpm/10^6 cells × 10^3
[8]
  cellular toxicity: lack of cellular toxicity
E. coli CN314
  MIC: 1 µg/mL
clinical
  decrease in the total body clearance (Cl/F): 3 -fold
  peak (Cmax) and trough (Cmin) levels on day 3 vs day 1: significantly higher than the corresponding levels on day 1
clinical; po, 2 mg/kg
  tl/2: 0.89 h
clinical; po, 2 mg/kg, AUC
  AUC: 3.7 µM·h
clinical; po, 2 mg/kg, Cmax
  Cmax: 3.74 µM
clinical; po, 2 mg/kg, Tmax
  Tmax: 30 min
clinical; po, 2 mg/kg, mean half-life (tl/2)
  half-life: 52.8 min
clinical; po, 2 mg/kg, tl/2
  half-life: 52.2 min
